Key:
SIN3A = SIN3A protein levels by western blotting; type: cell-based, human; settings: HCT116 cells
Method: (§1) Supporting Information: Biology
(§2) Representative blots of two independent biological replicates.
Figure S6. Representative Western blot of HDAC1/2/3 levels after 24 hours and 48 hours with 1
(JPS004), 7 (JPS014) and 9 (JPS016), and bar graph representation of HDAC1-3, LSD1 and Sin3a
protein levels after 24 hours and 48 hours as the average of three independent biological replicates.
(also on this page, place not known: HDAC1 24hHDAC2 24hHDAC3 24hHDAC1 48hHDAC2 48hHDAC3 %Protein Levels Remaining (Relative to DMSO) %Protein Levels Remaining (Relative to DMSO))

HCT116 cells [1] = experiment: CellTiter-Glo 2.0 cell viability assay; type: cell-based, human; settings: for EC50: Homo sapiens, HCT-116, 48 h
Method: CellTiter-Glo 2.0 Reagent (Promega UK Ltd, G9242) was equilibrated to room temperature and added to the wells in a ratio of 1 volume reagent:5 volumes medium. Background luminescence was determined using medium alone plus reagent. The plates were shaken on an orbital shaker for 2 min to induce cell lysis and then incubated in the dark at room temperature for 10 min to stabilize the luminescent signal. Luminescence was captured on a CLARIOstar plate reader (BMG Labtech Ltd, UK) at 22 °C to give relative luminescence units and analyzed using BMG Labtech software. EC50 values were calculated by nonlinear regression (Hill plot) and log (inhibitor) versus response—variable slopes (four parameters) using GraphPad Prism 9 software. Each compound dose response was repeated as four independent biological replicates (n = 4).

H3K56ac = experiment: Histone H3 Lys 56 acetylation (H3K56ac) western blotting; type: cell-based, human; settings: HCT116 cells, 24 h, screen at 0.1, 1, 10 μM; relative to DMSO, CI-994 and 1 at 10 μM
Text: as §1, §2

HDAC2 = HDAC2 (Homo sapiens, UniProt Q92769); experiment: HDAC2 degradation by quantitative western blotting in HCT116 cells; settings: for HDAC2 degradation in initial screen (in words): HCT116 cells, 24 h, 0.1, 1 and 10 μM, compared with 1 at 10 μM
Chain of HDAC2 (Q92769 whole entry): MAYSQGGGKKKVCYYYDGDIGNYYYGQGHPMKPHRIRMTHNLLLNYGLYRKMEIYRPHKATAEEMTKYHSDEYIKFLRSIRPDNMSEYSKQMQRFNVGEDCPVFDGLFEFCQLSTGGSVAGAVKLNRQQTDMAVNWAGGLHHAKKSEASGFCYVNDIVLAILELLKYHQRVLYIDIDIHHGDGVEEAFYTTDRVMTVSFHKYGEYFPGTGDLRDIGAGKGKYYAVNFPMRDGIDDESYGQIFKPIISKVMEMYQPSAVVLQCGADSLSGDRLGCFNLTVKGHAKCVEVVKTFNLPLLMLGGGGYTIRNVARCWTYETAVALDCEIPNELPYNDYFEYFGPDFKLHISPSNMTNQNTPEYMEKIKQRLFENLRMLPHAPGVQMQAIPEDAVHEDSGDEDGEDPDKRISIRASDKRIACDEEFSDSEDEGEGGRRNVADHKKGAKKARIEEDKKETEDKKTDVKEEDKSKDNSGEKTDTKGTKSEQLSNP
Method: (§3) Initially, each PROTAC was tested at 0.1, 1, and 10 μM in HCT116 cells for 24 h; then, cell extracts were prepared and evaluated for HDAC1/2 and 3 degradation by quantitative western blotting.
(§4) This cell line was incubated at 37 °C with 5% CO2.
(§5) HCT116 cells were seeded into 6-well plates (4 × 10^5 cells/well for 24 h, 2 × 10^5 cells/well for 48 h) for 24 h and then treated with DMSO or compounds at the indicated concentrations in fresh medium (5 mL total). After desired treatment time, the cells were harvested and then lysed in lysis buffer (50 mM Tris-HCl, 150 mM NaCl, 0.5% NP-40, 0.5% Triton X-100) supplemented with a protease inhibitor (Sigma, P8340). The suspension was incubated on ice for 30 min and centrifuged (18,000 rcf, 15 min, 4 °C); then, the supernatant was collected, and protein concentrations were quantified via Bradford Assay using Protein Assay Dye Reagent Concentrate (BIO-RAD). […] PageRuler Plus Prestained Ladder was used for size standards. After gel electrophoresis at 140 V for 90 min, the separated proteins were transferred onto a nitrocellulose membrane at 30 V for 60 min. The membranes were probed with primary antibodies (see the Supporting Information) for 60−90 min. Blots were developed with complimentary IRDye-conjugated secondary antibodies, and the bands were visualized using an Odyssey infrared imaging system. Image processing and band intensity quantification were performed using Image Studio Lite.

Solubility observations = type: physicochemical; settings: aqueous
HDAC1 = HDAC1 (Homo sapiens, UniProt Q13547); experiment: HDAC1 degradation by quantitative western blotting in HCT116 cells; settings: HCT116 cells, 24 h, 0.1, 1 and 10 μM; compared with 1 at 10 μM
Chain of HDAC1 (Q13547 whole entry): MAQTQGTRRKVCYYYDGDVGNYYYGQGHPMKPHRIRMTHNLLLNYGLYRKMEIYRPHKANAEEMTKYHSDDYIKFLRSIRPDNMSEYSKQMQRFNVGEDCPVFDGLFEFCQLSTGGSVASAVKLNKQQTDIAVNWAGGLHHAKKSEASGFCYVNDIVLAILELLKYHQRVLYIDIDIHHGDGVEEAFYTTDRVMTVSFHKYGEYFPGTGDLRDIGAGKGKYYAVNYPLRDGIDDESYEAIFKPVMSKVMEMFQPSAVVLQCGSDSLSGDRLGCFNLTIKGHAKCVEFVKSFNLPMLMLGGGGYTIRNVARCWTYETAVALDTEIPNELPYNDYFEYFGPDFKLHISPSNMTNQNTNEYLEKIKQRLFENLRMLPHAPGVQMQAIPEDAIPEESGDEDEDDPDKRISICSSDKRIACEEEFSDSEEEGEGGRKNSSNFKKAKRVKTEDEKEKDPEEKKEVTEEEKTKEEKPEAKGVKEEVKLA
Method: as §3, §4, §5

HCT116 cells [2] = experiment: Apoptosis flow cytometry assay (sub-G1 population); type: cell-based, human; settings: 10 μM, after 24 h
Method: HCT116 cells were seeded (5 × 10^5 cells/plate) into 6 cm tissue culture plates for 24 h and then treated with 10 μM compounds (with 0.1% DMSO vehicle) or 0.1% DMSO control in fresh medium (5 mL total). The cells were then exposed to the compounds (10 μM) for 24 or 48 h. To harvest the cells, the medium was transferred from each sample plate to 15 mL centrifuge tubes. Each well was washed with 1 mL of phosphate-buffered saline (PBS) and the PBS was transferred to the corresponding 15 mL centrifuge tube. The plates were trypsinized, 2 mL of medium was added, and the cells and medium were transferred to the corresponding 15 mL centrifuge tubes. The harvested cells were pelleted by centrifugation (200g, 5 min, 4 °C), washed with 1 mL PBS, and then pelleted again by centrifugation (200g, 5 min, 4 °C). The supernatant was discarded, and the pellets resuspended in 1 mL of 70% ethanol (ice-cold) to fix the cells. Samples were stored at 4 °C and analyzed within two weeks. PBS (1 mL) was added to each sample tube containing cells fixed in 70% ethanol. The cells were pelleted by centrifugation (200g, 5 min, 4 °C), and the PBS wash was repeated. The supernatant was discarded, and the pellet was resuspended in 50 μL of RNase A (1 μg/mL, Thermo Scientific, EN0531) and left at room temperature for 10 min to digest contaminating RNA. A total of 500 μL of PI stain (50 μg/mL, Invitrogen, P3566) was added to each tube, and the tubes were incubated in the dark, at room temperature, for 30 min. Results were acquired on a BD FACSCanto II flow cytometer and analyzed using BD FACSdiva software. Sub-G1 population was calculated as a percentage of total cell population. Two independent biological replicates were performed.

HDAC3 = HDAC3 (Homo sapiens, UniProt O15379); experiment: HDAC3 degradation by quantitative western blotting in HCT116 cells; settings: HCT116 cells, 24 h, 0.1, 1 and 10 μM; compared with 1 at 10 μM
Chain of HDAC3 (O15379 whole entry): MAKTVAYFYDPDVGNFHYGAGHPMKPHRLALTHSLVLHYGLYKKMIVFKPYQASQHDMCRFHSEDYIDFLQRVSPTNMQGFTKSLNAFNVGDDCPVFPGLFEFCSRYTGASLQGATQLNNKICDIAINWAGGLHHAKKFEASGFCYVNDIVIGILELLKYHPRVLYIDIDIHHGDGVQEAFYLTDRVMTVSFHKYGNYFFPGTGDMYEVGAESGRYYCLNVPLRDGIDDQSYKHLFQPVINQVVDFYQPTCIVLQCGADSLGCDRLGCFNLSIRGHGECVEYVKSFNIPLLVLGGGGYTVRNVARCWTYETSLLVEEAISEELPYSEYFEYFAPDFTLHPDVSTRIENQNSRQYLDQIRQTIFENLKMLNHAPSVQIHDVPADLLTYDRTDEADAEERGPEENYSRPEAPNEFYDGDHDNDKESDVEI
Chain of HDAC3 (Q9Y618 389-480 partner limits assumed): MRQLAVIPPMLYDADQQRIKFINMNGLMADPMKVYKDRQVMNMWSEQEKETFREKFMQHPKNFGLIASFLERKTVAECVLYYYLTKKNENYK
Method: as §3, §4, §5

Row | SMILES | H3K56ac levels (in words) (H3K56ac) | HDAC2 degradation in initial screen (in words) (HDAC2) | HDAC1 degradation in initial screen (in words) (HDAC1) | further results
1 | CC(=O)Nc1ccc(C(=O)Nc2ccccc2N)cc1 [CI-994, reference compound] |  |  |  | SIN3A levels (in words) (SIN3A; especially after 48 h): significantly reduced
2 | Cc1ncsc1-c1ccc(CNC(=O)[C@@H]2C[C@@H](O)CN2C(=O)[C@@H](NC(=O)CCCCCCCCCCC(=O)Nc2ccc(C(=O)Nc3ccccc3N)cc2)C(C)(C)C)cc1 [Compound 1, N1-(4-((2-Aminophenyl)carbamoyl)phenyl)-N12-((S)-1-((2S,4R)-4-hydroxy-2-((4-(4-methylthiazol-5-yl)benzyl)carbamoyl)pyrrolidin-1-yl)-3,3-dimethyl-1-oxobutan-2-yl)dodecanediamide] |  |  |  | EC50 (HCT116 cells [1]; 48 h): 4.3 ± 0.5 µM
3 | Cc1ncsc1-c1ccc(CNC(=O)[C@@H]2C[C@@H](O)CN2C(=O)[C@@H](NC(=O)CCCCCCCCCCCCC(=O)Nc2ccc(C(=O)Nc3ccccc3N)cc2)C(C)(C)C)cc1 [Compound 5, N1-(4-((2-Aminophenyl)carbamoyl)phenyl)-N14-((S)-1-((2S,4R)-4-hydroxy-2-((4-(4-methylthiazol-5-yl)benzyl)carbamoyl)-pyrrolidin-1-yl)-3,3-dimethyl-1-oxobutan-2-yl)tetradecanediamide] | only a modest increase in H3K56ac compared to the shorter linkers | comparable HDAC1 and HDAC2 degradation to the shorter linkers | comparable HDAC1 and HDAC2 degradation to the shorter linkers | Solubility (in words) (Solubility observations): solubility issues
4 | Cc1ncsc1-c1ccc(CNC(=O)[C@@H]2C[C@@H](O)CN2C(=O)[C@@H](NC(=O)CCCCCCCCOCC(=O)Nc2ccc(C(=O)Nc3ccccc3N)cc2)C(C)(C)C)cc1 [Compound 7, (2S,4R)-1-((S)-2-(9-(2-((4-((2-Aminophenyl)carbamoyl)phenyl)-amino)-2-oxoethoxy)nonanamido)-3,3-dimethylbutanoyl)-4-hydroxy-N-(4-(4-methylthiazol-5-yl)benzyl)pyrrolidine-2-carboxamide] | increased H3K56ac to comparable or greater levels than CI-994 and 1 |  |  | SIN3A levels (abundance) (SIN3A; 10 μM, after 24 h): 50 % abundance; Percentage of cells in sub-G1 phase (in words) (HCT116 cells [2]): highest percentage of cells in the sub-G1 phase; EC50 (HCT116 cells [1]): 7.3 ± 0.5 µM
5 | Cc1ncsc1-c1ccc(CNC(=O)[C@@H]2C[C@@H](O)CN2C(=O)[C@@H](NC(=O)CCCN2CCN(CCCC(=O)Nc3ccc(C(=O)Nc4ccccc4N)cc3)CC2)C(C)(C)C)cc1 [Compound 13, (2S,4R)-1-((S)-2-(4-(4-(4-((4-((2-Aminophenyl)carbamoyl)-phenyl)amino)-4-oxobutyl)piperazin-1-yl)butanamido)-3,3-dimethylbutanoyl)-4-hydroxy-N-(4-(4-methylthiazol-5-yl)benzyl)-pyrrolidine-2-carboxamide] | did not increase H3K56ac levels compared to the dimethyl sulfoxide (DMSO) control | almost complete loss of HDAC1/2 degradation | almost complete loss of HDAC1/2 degradation | HDAC3 degradation in initial screen (in words) (HDAC3): generally compromised
6 | Cc1ncsc1-c1ccc(CNC(=O)[C@@H]2C[C@@H](O)CN2C(=O)[C@@H](NC(=O)C2(F)CC2)C(C)(C)C)c(OCCCCCCCCCCCC(=O)Nc2ccc(C(=O)Nc3ccccc3N)cc2)c1 [Compound 22, (2S,4R)-N-(2-((12-((4-((2-Aminophenyl)carbamoyl)phenyl)-amino)-12-oxododecyl)oxy)-4-(4-methylthiazol-5-yl)benzyl)-1-((S)-2-(1-fluorocyclopropane-1-carboxamido)-3,3-dimethylbutanoyl)-4-hydroxypyrrolidine-2-carboxamide] | did not alter H3K56ac levels | reduction in HDAC1 and HDAC2 degradation compared to 1 |  | Effect on cell viability (in words) (HCT116 cells [1]; CellTiter-Glo and flow cytometry): little effects on cell viability; Dmax (HDAC2; HCT-116, read-out: Dmax HDAC2): 18%

— article PMC9014412 (Journal of medicinal chemistry, 2022)
